Source: the supplement of paper PMC10307832

Tests used:
Assay in all cases: relative viability (nuclei count vs DMSO), 5 days (fraction); higher = more cells survive
LC-2-ad = system: LC-2-ad
Outline: (§1)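 Relative viability is defined as nuclei in treated wells over nuclei in vehicle wells. Duplicate plates were run and medians reported. Lung cancer cell lines in 1536-well plates were dosed by pin tool one day after seeding, with one drug or with a fixed anchor-drug dose plus five library-drug doses (not always all listed) in √10 steps, and nuclei were counted after 5 days.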

PC-3 [JPC-3] = system: PC-3 [JPC-3]
Outline: as §1

RERF-LC-KJ = system: RERF-LC-KJ
Outline: as §1

NCI-H1792 = system: NCI-H1792
Outline: as §1

SW 1573 = system: SW 1573
Outline: as §1

A-427 = system: A-427
Outline: as §1

NCI-H647 = system: NCI-H647
Outline: as §1

LOU-NH91 = system: LOU-NH91
Outline: as §1

NCI-H460 = system: NCI-H460
Outline: as §1

HOP-62 = system: HOP-62
Outline: as §1

NCI-H2126 = system: NCI-H2126
Outline: as §1

## NC(=O)Nc1cc(-c2cccc(F)c2)sc1C(=O)N[C@H]1CCCNC1 [AZD7762] + Cc1nc(NC(=O)N2CCC[C@H]2C(N)=O)sc1-c1ccnc(C(C)(C)C(F)(F)F)c1 [Alpelisib] (partner 2 µM)
LC-2-ad; first compound 0.01 µM
  relative viability: 0.979
LC-2-ad; first compound 0.03162 µM
  relative viability: 0.897
LC-2-ad; first compound 0.1 µM
  relative viability: 0.795
LC-2-ad; first compound 0.3162 µM
  relative viability: 0.612
LC-2-ad; first compound 1 µM
  relative viability: 0.433
PC-3 [JPC-3]; first compound 0.01 µM
  relative viability: 0.998
PC-3 [JPC-3]; first compound 0.03162 µM
  relative viability: 1.03
PC-3 [JPC-3]; first compound 0.1 µM
  relative viability: 1.05
PC-3 [JPC-3]; first compound 0.3162 µM
  relative viability: 1.1
PC-3 [JPC-3]; first compound 1 µM
  relative viability: 0.897
RERF-LC-KJ; first compound 0.01 µM
  relative viability: 0.792
RERF-LC-KJ; first compound 0.03162 µM
  relative viability: 0.773
RERF-LC-KJ; first compound 0.1 µM
  relative viability: 0.787
RERF-LC-KJ; first compound 0.3162 µM
  relative viability: 0.924
RERF-LC-KJ; first compound 1 µM
  relative viability: 0.914
NCI-H1792; first compound 0.01 µM
  relative viability: 0.826
NCI-H1792; first compound 0.03162 µM
  relative viability: 0.781
NCI-H1792; first compound 0.1 µM
  relative viability: 0.727
NCI-H1792; first compound 0.3162 µM
  relative viability: 0.751
NCI-H1792; first compound 1 µM
  relative viability: 0.9
SW 1573; first compound 0.01 µM
  relative viability: 0.885
SW 1573; first compound 0.03162 µM
  relative viability: 0.807
SW 1573; first compound 0.1 µM
  relative viability: 0.926
SW 1573; first compound 0.3162 µM
  relative viability: 1.08
SW 1573; first compound 1 µM
  relative viability: 0.647
A-427; first compound 0.01 µM
  relative viability: 1.07
A-427; first compound 0.03162 µM
  relative viability: 1.14
A-427; first compound 0.1 µM
  relative viability: 1.1
A-427; first compound 0.3162 µM
  relative viability: 1.1
A-427; first compound 1 µM
  relative viability: 0.864
NCI-H647; first compound 0.01 µM
  relative viability: 1.28
NCI-H647; first compound 0.03162 µM
  relative viability: 1.02
NCI-H647; first compound 0.1 µM
  relative viability: 1.04
NCI-H647; first compound 0.3162 µM
  relative viability: 0.61
NCI-H647; first compound 1 µM
  relative viability: 0.104
LOU-NH91; first compound 0.01 µM
  relative viability: 0.731
LOU-NH91; first compound 0.03162 µM
  relative viability: 0.741
LOU-NH91; first compound 0.1 µM
  relative viability: 0.645
LOU-NH91; first compound 0.3162 µM
  relative viability: 0.612
LOU-NH91; first compound 1 µM
  relative viability: 0.478
NCI-H460; first compound 0.01 µM
  relative viability: 0.604
NCI-H460; first compound 0.03162 µM
  relative viability: 0.498
NCI-H460; first compound 0.1 µM
  relative viability: 0.54
NCI-H460; first compound 0.3162 µM
  relative viability: 0.293
NCI-H460; first compound 1 µM
  relative viability: 0.0196
HOP-62; first compound 0.01 µM
  relative viability: 0.918
HOP-62; first compound 0.03162 µM
  relative viability: 1.22
HOP-62; first compound 0.1 µM
  relative viability: 0.836
HOP-62; first compound 0.3162 µM
  relative viability: 1.04
HOP-62; first compound 1 µM
  relative viability: 1.36
NCI-H2126; first compound 0.01 µM
  relative viability: 0.794
NCI-H2126; first compound 0.03162 µM
  relative viability: 0.775
NCI-H2126; first compound 0.1 µM
  relative viability: 0.887
NCI-H2126; first compound 0.3162 µM
  relative viability: 0.824
NCI-H2126; first compound 1 µM
  relative viability: 0.85
